≈ marks a conversion by molar mass, not a printed value. Where “and” joins values, the source holds several entries; their conditions need not be identical. Equal entries are not always repeated. Each block holds one compound with its values, some of them ahead of it.
What was measured:
MDA-MB-231 cells = test: Gene expression by PCR relative to β-actin, MDA-MB-231; format: cell-based, human; conditions: MDA-MB-231, 96 μg/ml, 72 h
Procedure: (§1) FIG. 7. Detection of genes by PCR. Lane 1: MDA-MB-231 control cells; lane 2: MDA-MB-231 cells treated with anticancer compound (96 μg/ml) for 72 h; lane 3: IMR-32 control cells; lane 4: IMR-32 cells treated with anticancer compound (87 μg/ml) for 72 h; control cells are treated with 0.2% of ethanol-ethyl acetate mixture at 1:1 ratio.
(§2) Genetic level changes associated with the treatment of anticancer compound in MDA-MB-231 and IMR-32 cells were studied by isolating the RNA, reverse transcribing the RNA to cDNA, amplifying the genes using specific primers. The resulting bands were analyzed using image J and the expression of each gene was represented as relative gene expression using the β-actin gene as a control.

[1] = tested on: estrogen positive breast cancer cells (MCF-7); test: MTT cell proliferation assay, MCF-7; format: cell-based; conditions: Homo sapiens
Procedure: (§3) Anticancer activity of crude extracts were evaluated against four cell lines, human triple negative breast cancer cells (MDA-MB-231), estrogen positive breast cancer cells (MCF-7), human neuroblastoma cells (IMR-32) and human colon cancer cells (HCT-116) that were procured from NCCS-Pune using 3-(4,5-Dimethylthiazol-2-Yl)-2,5-Diphenyltetrazolium Bromide (MTT) assay.
(§4) In vitro cytotoxic activity of all the extracts was determined by MTT assay as described by Manikandan et al. (2017) with slight modification. After trypsinization, viable cells were counted by trypan blue exclusion in a hemocytometer and diluted with the medium.
(§5) The cells were seeded in 96 well plate at a density of 1-2×10^4 cells per well. The plate was incubated at 37° C. in a 5% CO2 atmosphere. The following day media was removed and the cells were treated with standard, doxorubicin (0.1-4 μg/ml) or plant extract at different concentrations (100-500 μg/ml). The extract was initially dissolved in 1:1 ratio of ethanol-ethyl acetate mixture and further diluted in medium to get the required concentrations. As plant extracts were dissolved in ethyl acetate and as ethyl acetate is not miscible with cell culture media, a mixture of ethanol-ethyl acetate in a ratio of 1:1 is used for all the cell culture experiments. The final mixture used for treating the cells contained not more than 0.5% of the ethanol-ethyl acetate mixture. Negative controls were treated with the same percentage of ethanol-ethyl acetate mixture.
(§6) The treated plate was incubated at 37° C. in a humidified incubator with 5% CO2 for 24 h. After the incubation period, the media was removed, 100 μl of 0.1 mg/ml MTT reagent was added and incubated at 37° C. in a humidified incubator with 5% CO2 for 1 h till purple MTT formazan crystals were visible under the microscope. The formazan crystals were dissolved by adding 100 μl DMSO and spectrophotometric readings were taken at 540 nm.
(§7) The cytotoxic activity of standard or plant extract was calculated as the percentage of cell growth inhibition by using the following formula.
(§8) Where Acontrol indicates the absorbance of control containing 0.5% ethanol-ethyl acetate mixture. Asample is the absorbance of treated cells at different concentrations. IC50 values (the concentration of sample required for inhibition of 50% of cell growth) were obtained from the regression line.
(§9) The anticancer potential of the anticancer compound against MDA-MB-231, MCF-7, IMR-32 and HCT-116 cells was evaluated at different concentrations (40, 80, 120, 160 and 200 μg/ml) and different incubation times (24 h, 48 h, 72 h) using MTT assay by the method described above.

IMR-32 cells [2] = test: Gene expression by PCR relative to β-actin, IMR-32; format: cell-based, human; conditions: IMR-32, 87 μg/ml, 72 h
Procedure: as §1, §2

[3] = tested on: human neuroblastoma cells (IMR-32); test: MTT cell proliferation assay, IMR-32; format: cell-based
Procedure: as §3, §4, §5, §6, §7, §8, §9

IMR-32 cells [4] = test: Cell cycle progression, IMR-32; format: cell-based, human
[5] = tested on: human peripheral blood lymphocytes; test: Trypan blue exclusion assay, lymphocyte viability; format: cell-based
Procedure: In order to know the side effects associated with the treatment of anticancer compound, the effect of the anticancer compound on the viability of human peripheral blood lymphocytes was determined using trypan blue exclusion assay. Along with the viability of lymphocytes, the viability of different cancer cells at that particular concentration and incubation time are shown in Table 6.

MDA-MB-231 = test: Cell cycle progression, MDA-MB-231; format: cell-based, human
[6] = tested on: human triple negative breast cancer cells (MDA-MB-231); test: MTT cell proliferation assay, MDA-MB-231; format: cell-based
Procedure: as §3, §4, §5, §6, §7, §8
Further, the most polar band from all the fractions was combined and termed as fraction 29. All the compounds separated along with crude diethyl ether extract were analyzed for their anticancer potential against MDA-MB-231 cells at a concentration of 300 μg/ml using MTT assay as described above. Cytotoxic activity was expressed as percentage inhibition of cells at 300 μg/ml.
as §9

[7] = tested on: human colon cancer cells (HCT-116); test: MTT cell proliferation assay, HCT-116; format: cell-based
Procedure: as §3, §4, §5, §6, §7, §8, §9

lymphocytes = conditions: 1 μg/ml, 24 h; cited from earlier work

IC50 ([1]; MCF7, 24 h): 243 µg/mL (≈ 719 µM)
IC50 ([1]; MCF7, 48 h): 183 ± 6.29 µg/mL (≈ 543 µM)
IC50 ([1]; MCF7, 72 h): 155 ± 5.24 µg/mL (≈ 458 µM)
IC50 ([3]; IMR-32, 24 h): 224 ± 7.21 µg/mL (≈ 663 µM)
IC50 ([3]; IMR-32, 48 h): 165.2 ± 0.87 µg/mL (≈ 489 µM)
IC50 ([3]; IMR-32, 72 h): 87.8 µg/mL (≈ 260 µM)
IC50 ([6]; MDA-MB-231, 24 h): 199.2 ± 0.5 µg/mL (≈ 590 µM)
IC50 ([6]; MDA-MB-231, 48 h): 99.1 ± 1.6 µg/mL (≈ 294 µM)
IC50 ([6]; MDA-MB-231, 72 h): 96.2 ± 1.75 µg/mL (≈ 285 µM)
IC50 ([7]; HCT-116, 24 h): 179 ± 6.12 µg/mL (≈ 531 µM)
IC50 ([7]; HCT-116, 48 h): 162 ± 5.02 µg/mL (≈ 478 µM)
IC50 ([7]; HCT-116, 72 h): 159 µg/mL (≈ 470 µM)
SMILES: Cc1cnc(-c2ccc(CCCCCCCC(C)C)cc2)c(C)c1C [Compound 16, 3,4,5-trimethyl-2-(4-(8-methylnonyl)phenyl)pyridine]
Bcl-2 gene expression vs control (MDA-MB-231 cells): reduced expression levels
IKK-β gene expression vs control (MDA-MB-231 cells): almost similar in treated and control cells
Nrf2 gene expression vs control (MDA-MB-231 cells): downregulation
caspase-3 gene expression vs control (MDA-MB-231 cells): upregulation
p53 gene expression vs control (MDA-MB-231 cells): reduced
viability at 300 µg/mL ([1]; MCF7, 300 μg/ml, 72 h, read-out: Viability percentage MCF-7): 0%
viability at 350 µg/mL ([1]; MCF7, 350 μg/ml, 48 h, read-out: Viability percentage MCF-7): 0%
viability at 400 µg/mL ([1]; MCF7, 400 μg/ml, 24 h, read-out: Viability percentage MCF-7): 0%
Bcl-2 gene expression vs control (IMR-32 cells [2]): no change in the expression levels
IKK-β gene expression vs control (IMR-32 cells [2]): downregulation
Nrf2 gene expression vs control (IMR-32 cells [2]): reduced expression level
caspase-3 gene expression vs control (IMR-32 cells [2]): upregulation
p53 gene expression vs control (IMR-32 cells [2]): reduced
viability at 300 µg/mL ([3]; IMR-32, 300 μg/ml, 72 h, read-out: Viability percentage IMR-32): 0%
viability at 350 µg/mL ([3]; IMR-32, 350 μg/ml, 48 h, read-out: Viability percentage IMR-32): 0%
viability at 400 µg/mL ([3]; IMR-32, 400 μg/ml, 24 h, read-out: Viability percentage IMR-32): 0%
phase at which cell cycle progression is inhibited (IMR-32 cells [4]): G1 phase
Viability percentage Lymphocytes ([5]; 300 μg/ml, 72 h, listed as anticancer compound): 74.94% and 74.94 ± 1.50%
Viability percentage Lymphocytes ([5]; 350 μg/ml, 48 h): 82.11 ± 1.42%
Viability percentage Lymphocytes ([5]; 400 μg/ml, 24 h, listed as anticancer compound): 91.04% and 90.40 ± 4.02%
phase at which cell cycle progression is inhibited (MDA-MB-231): G2/M phase
viability at 300 µg/mL ([6]; MDA-MB-231, 300 μg/ml, 72 h, read-out: Viability percentage MDA-MB-231): 0%
viability at 350 µg/mL ([6]; MDA-MB-231, 350 μg/ml, 48 h, read-out: Viability percentage MDA-MB-231): 0%
viability at 400 µg/mL ([6]; MDA-MB-231, 400 μg/ml, 24 h, read-out: Viability percentage MDA-MB-231): 0%
inhibition at 300 µg/mL ([6]; MDA-MB-231 cells, 300 μg/ml, read-out: Percentage Inhibition): 94.54 ± 0.59%
viability at 300 µg/mL ([7]; HCT-116, 300 μg/ml, 72 h, read-out: Viability percentage HCT-116): 3.29 ± 3.15%
viability at 350 µg/mL ([7]; HCT-116, 350 μg/ml, 48 h, read-out: Viability percentage HCT-116): 0%
viability at 400 µg/mL ([7]; HCT-116, 400 μg/ml, 24 h, read-out: Viability percentage HCT-116): 0%

IC50 ([1]; MCF7, crude extracts 100-500 μg/ml, doxorubicin 0.1-4 μg/ml, 24 h): 0.66 ± 0.04 µg/mL (≈ 1.21 µM)
IC50 ([3]; IMR-32, crude extracts 100-500 μg/ml, doxorubicin 0.1-4 μg/ml, 24 h): 0.5 µg/mL (≈ 0.92 µM)
IC50 ([6]; MDA-MB-231, crude extracts 100-500 μg/ml, doxorubicin 0.1-4 μg/ml, 24 h): 0.83 ± 0.03 µg/mL (≈ 1.53 µM)
IC50 ([7]; HCT-116, crude extracts 100-500 μg/ml, doxorubicin 0.1-4 μg/ml, 24 h): 0.4 µg/mL (≈ 0.736 µM)
SMILES: COc1cccc2c1C(=O)c1c(O)c3c(c(O)c1C2=O)C[C@@](O)(C(=O)CO)C[C@@H]3O[C@H]1C[C@H](N)[C@H](O)[C@H](C)O1 [Doxorubicin, doxorubicin, reference compound]
lymphocyte viability (lymphocytes): 65%

Reference: patent US20220024872A1, “ISOLATION AND CHARACTERIZATION OF ANTICANCER COMPOUND FROM SESUVIUM PORTULACASTRUM (L.) L” (priority 2019, published 2022)
